Test results: ChEMBL document CHEMBL1201862, “PubChem BioAssay data set” (2004)
The source made the active and inactive calls.

Assays:
INS1 = experiment: INS-1E survival protection against cytokine death – cell-based, luminescence, retest, dose response (AID 449756); type: functional; conditions: Rattus norvegicus;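 note: cell death triggered by IL-1 beta plus TNF-alpha plus IFN-gamma mixture; protective hits raise ATP signal compared with cytokine alone wells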
[1] = reduction of Shn3 3'UTR-driven luciferase in osteoblasts – cell-based, Clone20 osteoblasts, firefly luciferase, cherry-picked, dose response (AID 624132); type: functional;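 note: firefly luciferase luminescence from reporter carrying the Shn3 3'UTR in osteoblasts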
[2] = loss of viability in HepG2 cells – cell-based, CellTiter-Glo, cherry-picked, cytotoxicity control for Shn3 inhibitor project, dose response (AID 624134); type: functional
Protein skinhead-1 = biological target: T1, Protein skinhead-1 (Caenorhabditis elegans, UniProt P34707); type: functional
T1 sequence (P34707 whole entry): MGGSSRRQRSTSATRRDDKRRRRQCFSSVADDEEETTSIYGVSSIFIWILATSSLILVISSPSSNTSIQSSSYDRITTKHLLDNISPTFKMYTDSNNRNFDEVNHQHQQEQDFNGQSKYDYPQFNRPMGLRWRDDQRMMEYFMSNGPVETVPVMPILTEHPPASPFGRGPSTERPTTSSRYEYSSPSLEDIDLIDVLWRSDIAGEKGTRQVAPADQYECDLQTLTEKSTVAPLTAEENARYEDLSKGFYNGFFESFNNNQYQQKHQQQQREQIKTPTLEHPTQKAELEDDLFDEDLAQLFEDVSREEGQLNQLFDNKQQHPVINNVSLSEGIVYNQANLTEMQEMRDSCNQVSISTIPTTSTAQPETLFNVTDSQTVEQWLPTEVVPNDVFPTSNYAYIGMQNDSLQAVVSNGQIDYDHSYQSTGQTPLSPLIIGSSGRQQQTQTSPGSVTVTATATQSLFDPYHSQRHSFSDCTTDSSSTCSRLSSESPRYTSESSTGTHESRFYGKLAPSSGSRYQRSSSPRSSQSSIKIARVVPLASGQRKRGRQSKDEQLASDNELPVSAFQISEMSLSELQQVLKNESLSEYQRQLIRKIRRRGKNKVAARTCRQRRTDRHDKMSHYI

[3] = Luminescence Cell-Based Dose Confirmation HTS to Identify Activators of 5'UTR Stem-Loop Driven Alpha-Synuclein mRNA Translation in H4 Neuroglioblastoma Cells. [Related pubchem assays: 1829 (Project Summary), 1814 (Primary HTS)]; type: functional
[4] = Luminescence Cell-Based Dose Response HTS to Identify Activators of Luciferase Translation or Activity in H4 […] Cells. [Related pubchem assays: 1829 (Project Summary), 1814 (Primary HTS)]; type: functional
H4 = experiment: Luminescence Cell-Based Dose Response HTS to Identify Activators of 5'UTR Stem-Loop Driven Prion Protein mRNA Translation in H4 Neuroglioblastoma Cells. [Related pubchem assays: 1829 (Project Summary), 1814 (Primary HTS)]; type: functional; conditions: Homo sapiens
[5] = biological target: T2, Corticotropin-releasing factor receptor 2/Corticotropin-releasing factor-binding protein (Homo sapiens, UniProt P24387+Q13324); experiment: Dose Response confirmation of uHTS hits for small molecule antagonists of the CRF-binding protein and CRF-R2 receptor complex.; type: functional; conditions: read-out: IC50_Mean
T2 sequence (Q13324 whole entry): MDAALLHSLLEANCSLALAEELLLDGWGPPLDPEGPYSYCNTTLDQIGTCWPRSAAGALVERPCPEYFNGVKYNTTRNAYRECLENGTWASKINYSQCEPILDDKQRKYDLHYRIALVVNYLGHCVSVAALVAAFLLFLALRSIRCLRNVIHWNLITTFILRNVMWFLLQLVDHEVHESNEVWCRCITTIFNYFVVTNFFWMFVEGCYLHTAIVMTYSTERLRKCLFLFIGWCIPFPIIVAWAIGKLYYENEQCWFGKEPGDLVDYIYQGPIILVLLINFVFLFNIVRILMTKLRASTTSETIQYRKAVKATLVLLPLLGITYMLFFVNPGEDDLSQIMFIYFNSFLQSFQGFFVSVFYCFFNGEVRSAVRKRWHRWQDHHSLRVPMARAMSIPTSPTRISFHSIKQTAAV
T2 sequence (P24387 whole entry): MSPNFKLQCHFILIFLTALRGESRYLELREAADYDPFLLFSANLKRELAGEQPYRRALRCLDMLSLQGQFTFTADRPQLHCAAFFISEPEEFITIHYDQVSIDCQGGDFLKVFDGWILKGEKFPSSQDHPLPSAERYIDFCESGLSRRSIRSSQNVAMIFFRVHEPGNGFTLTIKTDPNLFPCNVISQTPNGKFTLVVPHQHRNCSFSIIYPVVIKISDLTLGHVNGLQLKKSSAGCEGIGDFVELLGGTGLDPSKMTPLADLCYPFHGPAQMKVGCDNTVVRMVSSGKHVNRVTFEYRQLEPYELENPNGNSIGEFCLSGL

[6] = biological target: T2, Corticotropin-releasing factor receptor 2/Corticotropin-releasing factor-binding protein; experiment: activators of CRF receptor 2 with binding protein – uHTS hits, confirmation (AID 602473); type: functional; conditions: read-out: EC50_Mean
[7] = biological target: T3, Polyadenylate-binding protein 1 (Homo sapiens, UniProt P11940); experiment: MLLE binding blockers, Cy5 peptide tracer – biochemical, fluorescence polarization, Cy5-PAM2 peptide, secondary, miRNA deadenylation inhibitor project, dose response (AID 602260); type: functional; conditions: read-out: IC50_Mean
[8] = biological target: T3, Polyadenylate-binding protein 1; experiment: MLLE domain peptide-binding blockers, IC50 – biochemical, fluorescence polarization, FITC-PAM2 peptide, dose response (AID 602259); type: functional; conditions: read-out: IC50_Mean
[9] = biological target: Luciferin 4-monooxygenase (Photinus pyralis, UniProt P08659); experiment: inhibition of purified Photinus pyralis luciferase – biochemical, luminescence, dose response (AID 1891)
[10] = Luminescence Cell-Based Dose Confirmation HTS to Identify Inhibitors of Platelet Dense Granule Release. [Related pubchem assays: 1663 (Primary HTS), 1678 (Summary of Project)]; type: functional
Cytochrome P450 2C19 = Cytochrome P450 2C19 (Homo sapiens, UniProt P33261); experiment: Cytochrome panel assay with activity outcomes. Panel member name: p450-cyp2c19 Compounds with AC50 equal or less than 10 uM are considered active; type: functional; conditions: read-out: AC50
Cytochrome P450 2C9 = Cytochrome P450 2C9 (Homo sapiens, UniProt P11712)
[11] = non-specific 3'UTR reporter inhibition in Clone20-Shn3RL – cell-based, Renilla luciferase, cherry-picked, counter-screen for Shn3 inhibitor project, dose response (AID 624133); type: functional

Luciferin 4-monooxygenase, sequence (P08659 whole entry): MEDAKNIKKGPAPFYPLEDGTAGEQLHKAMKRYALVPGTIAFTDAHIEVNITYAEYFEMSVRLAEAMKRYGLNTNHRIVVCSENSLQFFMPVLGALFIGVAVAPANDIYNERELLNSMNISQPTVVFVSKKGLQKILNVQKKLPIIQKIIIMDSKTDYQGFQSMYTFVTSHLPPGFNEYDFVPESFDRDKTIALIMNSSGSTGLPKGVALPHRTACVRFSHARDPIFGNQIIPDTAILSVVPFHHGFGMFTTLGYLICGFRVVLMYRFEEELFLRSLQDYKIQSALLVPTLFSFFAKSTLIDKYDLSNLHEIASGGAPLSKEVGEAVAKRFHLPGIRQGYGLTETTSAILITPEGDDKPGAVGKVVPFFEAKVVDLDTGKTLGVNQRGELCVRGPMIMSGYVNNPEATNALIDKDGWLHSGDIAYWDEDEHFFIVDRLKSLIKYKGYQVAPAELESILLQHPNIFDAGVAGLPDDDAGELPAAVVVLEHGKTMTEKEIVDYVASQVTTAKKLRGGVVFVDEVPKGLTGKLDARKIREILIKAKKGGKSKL
T3 sequence (P11940 whole entry, the tested form may be a part): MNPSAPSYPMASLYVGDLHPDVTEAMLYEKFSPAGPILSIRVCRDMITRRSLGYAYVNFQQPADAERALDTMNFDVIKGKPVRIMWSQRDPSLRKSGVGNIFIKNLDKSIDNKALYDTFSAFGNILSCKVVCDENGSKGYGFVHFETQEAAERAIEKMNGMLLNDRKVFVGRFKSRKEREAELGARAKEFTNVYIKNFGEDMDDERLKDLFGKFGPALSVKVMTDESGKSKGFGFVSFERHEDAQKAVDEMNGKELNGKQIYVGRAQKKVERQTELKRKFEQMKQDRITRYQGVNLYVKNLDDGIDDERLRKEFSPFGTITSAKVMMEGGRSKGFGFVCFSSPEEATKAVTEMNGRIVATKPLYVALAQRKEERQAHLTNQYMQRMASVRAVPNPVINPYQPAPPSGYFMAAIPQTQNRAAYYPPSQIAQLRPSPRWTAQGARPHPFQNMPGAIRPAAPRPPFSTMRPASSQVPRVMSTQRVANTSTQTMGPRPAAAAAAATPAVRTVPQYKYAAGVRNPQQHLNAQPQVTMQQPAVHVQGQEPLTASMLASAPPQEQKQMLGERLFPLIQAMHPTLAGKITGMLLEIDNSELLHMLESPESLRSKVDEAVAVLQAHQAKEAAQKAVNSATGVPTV
Cytochrome P450 2C9, sequence (P11712 whole entry): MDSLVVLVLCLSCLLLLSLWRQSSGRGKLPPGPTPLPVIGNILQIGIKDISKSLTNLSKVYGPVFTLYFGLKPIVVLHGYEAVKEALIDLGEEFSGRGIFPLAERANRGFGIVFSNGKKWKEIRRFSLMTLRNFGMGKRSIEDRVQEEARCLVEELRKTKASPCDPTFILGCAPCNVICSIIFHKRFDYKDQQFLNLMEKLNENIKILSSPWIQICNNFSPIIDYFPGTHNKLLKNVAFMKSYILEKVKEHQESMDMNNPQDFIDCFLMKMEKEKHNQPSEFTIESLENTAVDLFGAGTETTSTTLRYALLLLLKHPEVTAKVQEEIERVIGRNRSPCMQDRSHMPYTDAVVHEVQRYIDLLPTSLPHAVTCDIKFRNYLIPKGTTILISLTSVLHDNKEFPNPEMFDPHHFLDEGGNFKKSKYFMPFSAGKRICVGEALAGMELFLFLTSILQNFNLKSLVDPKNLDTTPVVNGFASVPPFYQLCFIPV
Cytochrome P450 2C19, sequence (P33261 whole entry): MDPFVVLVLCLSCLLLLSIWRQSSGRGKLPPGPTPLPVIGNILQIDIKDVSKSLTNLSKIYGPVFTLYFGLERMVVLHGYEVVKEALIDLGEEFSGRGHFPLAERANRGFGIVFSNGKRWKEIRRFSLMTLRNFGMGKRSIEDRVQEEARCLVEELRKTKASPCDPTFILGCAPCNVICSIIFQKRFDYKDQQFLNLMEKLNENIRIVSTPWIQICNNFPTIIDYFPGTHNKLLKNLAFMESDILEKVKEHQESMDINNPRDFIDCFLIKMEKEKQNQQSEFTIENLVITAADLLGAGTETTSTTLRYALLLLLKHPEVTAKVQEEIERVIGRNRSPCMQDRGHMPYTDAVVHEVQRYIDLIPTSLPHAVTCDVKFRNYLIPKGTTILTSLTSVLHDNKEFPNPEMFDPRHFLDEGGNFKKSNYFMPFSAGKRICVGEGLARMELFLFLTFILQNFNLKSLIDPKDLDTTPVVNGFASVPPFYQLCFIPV

For `CN(C)c1ccc(/C=C/c2ccc3ccccc3n2)cc1`, the AC50 (INS1) was 3.17 µM (active), the AC50 [1] was 1.33 µM (active) and the AC50 [2] was 15.9 µM (active). The IC50 (Protein skinhead-1) was > 100 µM (inactive).
For `COc1ccc(NC2CC(=O)N(C(C)C)C2=O)cc1` (centres undefined), the EC50 [3] was 5.94 µM (active), the EC50 [4] was 18.8 µM (active) and the EC50 (H4) was > 120 µM (not active).
For `CCOc1ccc(NC(=O)[C@@H](NC(=O)c2ccccc2)[C@@H](C)CC)cc1`, the IC50 [5] was > 47.1 µM (inactive) and the EC50 [6] was > 53 µM (inactive).
For `Cc1cccc(C)c1OCC(O)Cn1nnc2ccccc21` (centres undefined), the IC50 [5] was > 47.1 µM (inactive) and the EC50 [6] was > 53 µM (inactive).
With `COc1ccc(Cc2nnc(NC(=O)C3CCCO3)s2)cc1OC` (centres undefined) the IC50 [7] was > 66 µM (inactive) and the IC50 [8] was > 66 µM (inactive).
For `CCOC(=O)Cc1csc(NC(=S)NC(=O)c2ccccc2Br)n1`, the IC50 [7] was > 66 µM (inactive) and the IC50 [8] was > 66 µM (inactive).
With `Cc1sc(NC(=O)CCCC(=O)O)c(C(N)=O)c1-c1ccccc1` the IC50 [7] was > 66 µM (inactive) and the IC50 [8] was > 66 µM (inactive).
For `Cc1cccc(NC(=O)c2cc(-c3ccc(C)s3)nc3ccccc23)n1`, the EC50 [3] was > 120 µM (not active), the EC50 [4] was > 60 µM (not active) and the EC50 (H4) was 9.88 µM (active).
For `Cc1onc(-c2ccccc2Cl)c1C(=O)Nc1ccc(Br)cc1`, the EC50 [9] was > 112 µM (not active) and the EC50 [10] was > 112 µM (not active).
In the case of `COc1ccc(CNC(=O)c2ccc(C(C)C)cc2)cc1`, the EC50 [3] was 53.5 µM (active), the EC50 [4] was 0.16 µM (inconclusive) and the EC50 (H4) was 80.9 µM (active).
In the case of `COC(=O)c1sc(NC(=O)c2ccc(C)o2)nc1C`, the EC50 [9] was 5.6 µM (active) and the EC50 [10] was > 112 µM (not active).
For `Fc1ccccc1C1CCN(Cc2nc(CC3CC3)no2)C1` (centres undefined), the EC50 [3] was 15 µM (active), the EC50 [4] was 17.2 µM (active) and the EC50 (H4) was 15.4 µM (active).
For `CC(C)C(NS(=O)(=O)c1ccc2c(c1)oc(=O)n2C)C(=O)N1CCN(C2CCCCC2)CC1` (centres undefined), the IC50 [5] was > 47.1 µM (inactive) and the EC50 [6] was > 53 µM (inactive).
In the case of `O=c1oc(-c2ccc([N+](=O)[O-])cc2)nc2ccc(O)cc12`, the EC50 [9] was 0.995 µM (active) and the EC50 [10] was 1.72 µM (active).
For `Cc1ccc(S(=O)(=O)c2cc3ccccc3oc2=O)cc1`, the EC50 [3] was > 120 µM (not active) and the EC50 (H4) was > 120 µM (not active).
With `Cc1cccc(NS(=O)(=O)c2cccc(C(=O)N3CCN(c4ccccn4)CC3)c2)c1` the IC50 [5] was > 47.1 µM (inactive) and the EC50 [6] was > 53 µM (inactive).
With `COC(=O)c1cn(NC(=O)c2ccc(F)cc2)c(=O)c2ccccc12` the AC50 (Cytochrome P450 2C19) was 17.8 µM (inconclusive), the IC50 [5] was > 47.1 µM (inactive) and the EC50 [6] was > 53 µM (inactive). For the same molecule, the AC50 (Cytochrome P450 2C9) was 39.8 µM (inconclusive).
For `COc1cccc(C(=O)Nc2nc(O)c3c(n2)CCCC3)c1`, the EC50 [3] was 14.5 µM (active), the EC50 [4] was > 120 µM (not active) and the EC50 (H4) was > 120 µM (not active).
For `O=C(CCCn1cc([N+](=O)[O-])cn1)NC1CCCCCC1`, the EC50 [9] was > 112 µM (not active) and the EC50 [10] was > 112 µM (not active).
With `COC(=O)CCCC1=CC2=C(c3ccccc3)C(=O)C(C)(OC(=O)C3CCCC3)C(=O)C2=CN1CCN1CCOCC1` (centres undefined) the IC50 [7] was > 66 µM (inactive) and the IC50 [8] was > 66 µM (inactive).
For `CCC1OC(=O)C(C)C(OC2C[C@@](C)(OC)C(O)C(C)O2)C(C)C(O[C@@H]2OC(C)CC(N(C)C)C2O)[C@](C)(O)CC(C)C(=NOCOCCOC)C(C)C(O)[C@]1(C)O` (some centres undefined), the IC50 [5] was > 47.1 µM (inactive) and the EC50 [6] was > 53 µM (inactive).
With `COC(=O)C1=C(C)N(Cc2ccccc2)C(=O)N[C@H]1CCc1ccccc1` the IC50 [5] was > 47.1 µM (inactive) and the EC50 [6] was > 53 µM (inactive).
For `Cc1cc2cc(CNC(=O)c3ccc(S(=O)(=O)N4CCOCC4)cc3)ccc2[nH]1`, the IC50 [7] was > 66 µM (inactive) and the IC50 [8] was > 66 µM (inactive).
With `Cc1ccc(-n2ncc(Cl)c2C(=O)NCc2ccccc2)cc1` the EC50 [3] was 3.28 µM (active), the EC50 [4] was 4.06 µM (active) and the EC50 (H4) was 5.76 µM (active).
With `O=C(NC(=S)Nc1ccc(S(=O)(=O)N2CCCCC2)cc1)c1cccs1` the IC50 [7] was > 66 µM (inactive) and the IC50 [8] was > 66 µM (inactive).
For `Cc1cc(C)nc(Nc2nc(=O)c3ccccc3s2)n1`, the IC50 [7] was > 66 µM (inactive) and the IC50 [8] was > 66 µM (inactive).
In the case of `COC(=O)c1cn(C(=O)/C=C/c2ccc(OC)c(OC)c2)c2ccccc12`, the EC50 [3] was 20.2 µM (active), the EC50 [4] was 32.1 µM (active) and the EC50 (H4) was > 120 µM (not active).
With `CCN(CC(=O)Nc1sc2c(c1C#N)CCCC2)CC(=O)NC1CCS(=O)(=O)C1` (centres undefined) the EC50 [9] was > 112 µM (not active) and the EC50 [10] was > 112 µM (not active).
In the case of `O=C(NC(=S)Nc1ccc(Cc2ccncc2)cc1)c1ccccc1Cl`, the IC50 [7] was > 66 µM (inactive) and the IC50 [8] was > 66 µM (inactive).
In the case of `COc1ccc2oc(-c3ccncc3)cc(=O)c2c1`, the IC50 [7] was > 66 µM (inactive) and the IC50 [8] was > 66 µM (inactive).
With `CC(C)C(NC(=O)c1ccc(Cl)cc1Cl)C(=O)N1CCN(S(=O)(=O)c2ccccc2)CC1` (centres undefined) the AC50 [1] was 48.5 µM (active) and the AC50 [11] was 21 µM (active).
With `CCCCOc1ccc(N2C(=O)C(C)CNC2=S)cc1` (centres undefined) the IC50 [7] was > 66 µM (inactive) and the IC50 [8] was 41.1 µM (inactive).
For `COc1ccc(NC(=O)c2cc3ccccc3o/c2=N\NS(=O)(=O)c2ccc(C)cc2)cc1`, the EC50 (H4) was 0.575 µM (active).
For `NC(=O)c1ccccc1N/C=C/C(=O)c1ccc(Cl)cc1Cl`, the EC50 [9] was 1.1 µM (active) and the EC50 [10] was 8.86 µM (active).
For `Cc1oc(/N=C/c2ccc3c(c2)OCO3)c(C#N)c1C`, the EC50 [3] was > 120 µM (not active), the EC50 [4] was 38.1 µM (active) and the EC50 (H4) was > 120 µM (not active).
For `Cc1nc2ccccc2c(=O)n1/N=C/c1cn(-c2ccccc2)nc1-c1cccs1`, the EC50 [3] was 5.11 µM (active), the EC50 [4] was 14.8 µM (active) and the EC50 (H4) was 6.75 µM (active).
